Assay results: patent publication US11439642B2 (Adverio Pharma GmbH, priority 2010, dated 2022)

System: conscious spontaneously hypertensive rats (SHR Okamoto)
Assay: Radiotelemetric measurement of blood pressure on conscious spontaneously hypertensive rats
Type: in vivo, rat
Description: A commercially available telemetry system from DATA SCIENCES INTERNATIONAL DSI, USA, is employed for the blood pressure measurements on conscious rats described below.
The system consists of 3 main components: • implantable transmitters (Physiotel® telemetry transmitter) • receivers (Physiotel® receiver) which are linked via a multiplexer (DSI Data Exchange Matrix) to a • data acquisition computer.
The telemetry system makes it possible to continuously record blood pressure, heart rate and body motions of conscious animals in their usual habitat.
The investigations are carried out on adult female spontaneously hypertensive rats (SHR Okamoto) with a body weight of >200 g. SHR/NCrl from the Okamoto Kyoto School of Medicine, 1963 were a cross of male Wistar Kyoto rats with highly elevated blood pressure and female rats having a slightly elevated blood pressure and at F13 handed over to the U.S. National Institutes of Health.
After transmitter implantation, the experimental animals are housed singly in type 3 Makrolon cages. They have free access to standard feed and water.
The day/night rhythm in the experimental laboratory is changed by the room lighting at 6.00 am and at 7.00 pm.
The telemetry transmitters TA11 PA-C40 used are surgically implanted under aseptic conditions in the experimental animals at least 14 days before the first experimental use. The animals instrumented in this way can be employed repeatedly after the wound has healed and the implant has settled.
For the implantation, the fasted animals are anaesthetized with pentobarbital (Nembutal, Sanofi: 50 mg/kg i.p.) and shaved and disinfected over a large area of their abdomens. After the abdominal cavity has been opened along the linea alba, the liquid-filled measuring catheter of the system is inserted into the descending aorta in the cranial direction above the bifurcation and fixed with tissue glue (VetBonD™, 3M). The transmitter housing is fixed intraperitoneally to the abdominal wall muscle, and layered closure of the wound is performed.
An antibiotic (Tardomyocel COMP, Bayer, 1 ml/kg s.c.) is administered postoperatively for prophylaxis of infection.
Unless indicated otherwise, the substances to be investigated are administered orally by gavage in each case to a group of animals (n=6). The test substances are dissolved in suitable solvent mixtures, or suspended in 0.5% strength Tylose, appropriate for an administration volume of 5 ml/kg of body weight.
A solvent-treated group of animals is employed as control.
The telemetry measuring unit present is configured for 24 animals. Each experiment is recorded under an experiment number (Vyear month day).
Each of the instrumented rats living in the system is assigned a separate receiving antenna (1010 Receiver, DSI).
The implanted transmitters can be activated externally by means of an incorporated magnetic switch and are switched to transmission in the run-up to the experiment. The emitted signals can be detected online by a data acquisition system (Dataquest™ A.R.T. for Windows, DSI) and be appropriately processed. The data are stored in each case in a file created for this purpose and bearing the experiment number.
In the standard procedure, the following are measured for 10-second periods in each case: • systolic blood pressure (SBP) • diastolic blood pressure (DBP) • mean arterial pressure (MAP) • heart rate (HR) • activity (ACT).
The acquisition of measured values is repeated under computer control at 5-minute intervals. The source data obtained as absolute value are corrected in the diagram with the currently measured barometric pressure (Ambient Pressure Reference Monitor; APR-1) and stored as individual data. Further technical details are given in the extensive documentation from the manufacturing company (DSI).
Unless indicated otherwise, the test substances are administered at 9.00 am on the day of the experiment. Following the administration, the parameters described above are measured over 24 hours. […]

[1] = 0.3 mg/kg p.o., 0 hours after substance administration
[2] = 0.3 mg/kg p.o., 1 hours after substance administration
[3] = 0.3 mg/kg p.o., 2 hours after substance administration
[4] = 0.3 mg/kg p.o., 3 hours after substance administration
[5] = 0.3 mg/kg p.o., 4 hours after substance administration
[6] = 0.3 mg/kg p.o., 5 hours after substance administration
[7] = 0.3 mg/kg p.o., 6 hours after substance administration
[8] = 0.3 mg/kg p.o., 7 hours after substance administration
[9] = 0.3 mg/kg p.o., 8 hours after substance administration
[10] = 0.3 mg/kg p.o., 9 hours after substance administration
[11] = 0.3 mg/kg p.o., 10 hours after substance administration
[12] = 0.3 mg/kg p.o., 11 hours after substance administration
[13] = 0.3 mg/kg p.o., 12 hours after substance administration
[14] = 0.3 mg/kg p.o., 13 hours after substance administration
[15] = 0.3 mg/kg p.o., 14 hours after substance administration
[16] = 0.3 mg/kg p.o., 15 hours after substance administration
[17] = 0.3 mg/kg p.o., 16 hours after substance administration
[18] = 0.3 mg/kg p.o., 17 hours after substance administration
[19] = 0.3 mg/kg p.o., 18 hours after substance administration
[20] = 0.3 mg/kg p.o., 19 hours after substance administration
[21] = 0.3 mg/kg p.o., 20 hours after substance administration
[22] = 0.3 mg/kg p.o., 21 hours after substance administration
[23] = 0.3 mg/kg p.o., 22 hours after substance administration
[24] = 0.3 mg/kg p.o., 23 hours after substance administration
[25] = 0.3 mg/kg p.o., 24 hours after substance administration

Q: With `COC(=O)Nc1c(N)nc(-c2nn(Cc3ccccc3F)c3ncc(F)cc23)nc1N` [Example 1, Methyl {4,6-diamino-2-[5-fluoro-1-(2-fluorobenzyl)-1H-pyrazolo[3,4-b]pyridin-3-yl]pyrimidin-5-yl}carbamate] as the compound, how does the mean blood pressure [1] read?
A: Its mean blood pressure is 151.0 mm Hg.

Q: What about the mean blood pressure [2] of the same compound?
A: Its mean blood pressure is 148.4 mm Hg.

Q: And the mean blood pressure [3]?
A: The mean blood pressure was 136.4 mm Hg.

Q: And the mean blood pressure [4]?
A: Its mean blood pressure is 130.6 mm Hg.

Q: What about the mean blood pressure [5] of the same compound?
A: Its mean blood pressure is 129.1 mm Hg.

Q: And the mean blood pressure [6]?
A: Its mean blood pressure is 132.8 mm Hg.

Q: What about the mean blood pressure [7] of the same compound?
A: Its mean blood pressure is 125.6 mm Hg.

Q: What about the mean blood pressure [8] of the same compound?
A: Its mean blood pressure is 131.9 mm Hg.

Q: What about the mean blood pressure [9] of the same compound?
A: The mean blood pressure was 131.8 mm Hg.

Q: What about the mean blood pressure [10] of the same compound?
A: The mean blood pressure was 138.5 mm Hg.

Q: And the mean blood pressure [11]?
A: The mean blood pressure was 138.3 mm Hg.

Q: What about the mean blood pressure [12] of the same compound?
A: The mean blood pressure was 138.9 mm Hg.

Q: What about the mean blood pressure [13] of the same compound?
A: Its mean blood pressure is 137.7 mm Hg.

Q: What about the mean blood pressure [14] of the same compound?
A: Its mean blood pressure is 142.9 mm Hg.

Q: What about the mean blood pressure [15] of the same compound?
A: The mean blood pressure was 144.5 mm Hg.

Q: And the mean blood pressure [16]?
A: The mean blood pressure was 143.8 mm Hg.

Q: And the mean blood pressure [17]?
A: Its mean blood pressure is 146.3 mm Hg.

Q: What about the mean blood pressure [18] of the same compound?
A: Its mean blood pressure is 141.8 mm Hg.

Q: What about the mean blood pressure [19] of the same compound?
A: Its mean blood pressure is 138.4 mm Hg.

Q: What about the mean blood pressure [20] of the same compound?
A: The mean blood pressure was 149.2 mm Hg.

Q: What about the mean blood pressure [21] of the same compound?
A: The mean blood pressure was 145.1 mm Hg.

Q: And the mean blood pressure [22]?
A: The mean blood pressure was 142.1 mm Hg.

Q: And the mean blood pressure [23]?
A: Its mean blood pressure is 141.8 mm Hg.

Q: And the mean blood pressure [24]?
A: Its mean blood pressure is 143.6 mm Hg.

Q: And the mean blood pressure [25]?
A: Its mean blood pressure is 135.1 mm Hg.

Q: And the mean blood pressure (3.0 mg/kg p.o., 0 hours after substance administration)?
A: The mean blood pressure was 149.0 mm Hg.

Q: What about the mean blood pressure (3.0 mg/kg p.o., 1 hours after substance administration) of the same compound?
A: The mean blood pressure was 129.3 mm Hg.

Q: And the mean blood pressure (3.0 mg/kg p.o., 2 hours after substance administration)?
A: Its mean blood pressure is 111.1 mm Hg.

Q: What about the mean blood pressure (3.0 mg/kg p.o., 3 hours after substance administration) of the same compound?
A: Its mean blood pressure is 106.0 mm Hg.

Q: And the mean blood pressure (3.0 mg/kg p.o., 4 hours after substance administration)?
A: The mean blood pressure was 107.8 mm Hg.

Q: What about the mean blood pressure (3.0 mg/kg p.o., 5 hours after substance administration) of the same compound?
A: Its mean blood pressure is 109.3 mm Hg.

Q: What about the mean blood pressure (3.0 mg/kg p.o., 6 hours after substance administration) of the same compound?
A: The mean blood pressure was 106.8 mm Hg.

Q: What about the mean blood pressure (3.0 mg/kg p.o., 7 hours after substance administration) of the same compound?
A: The mean blood pressure was 110.9 mm Hg.

Q: What about the mean blood pressure (3.0 mg/kg p.o., 8 hours after substance administration) of the same compound?
A: Its mean blood pressure is 109.8 mm Hg.

Q: And the mean blood pressure (3.0 mg/kg p.o., 9 hours after substance administration)?
A: The mean blood pressure was 114.3 mm Hg.

Q: And the mean blood pressure (3.0 mg/kg p.o., 10 hours after substance administration)?
A: The mean blood pressure was 114.5 mm Hg.

Q: What about the mean blood pressure (3.0 mg/kg p.o., 11 hours after substance administration) of the same compound?
A: Its mean blood pressure is 115.6 mm Hg.

Q: What about the mean blood pressure (3.0 mg/kg p.o., 12 hours after substance administration) of the same compound?
A: The mean blood pressure was 118.8 mm Hg.

Q: And the mean blood pressure (3.0 mg/kg p.o., 13 hours after substance administration)?
A: The mean blood pressure was 120.4 mm Hg.

Q: And the mean blood pressure (3.0 mg/kg p.o., 14 hours after substance administration)?
A: The mean blood pressure was 122.8 mm Hg.

Q: What about the mean blood pressure (3.0 mg/kg p.o., 15 hours after substance administration) of the same compound?
A: Its mean blood pressure is 125.8 mm Hg.

Q: What about the mean blood pressure (3.0 mg/kg p.o., 16 hours after substance administration) of the same compound?
A: The mean blood pressure was 131.5 mm Hg.

Q: What about the mean blood pressure (3.0 mg/kg p.o., 17 hours after substance administration) of the same compound?
A: Its mean blood pressure is 124.7 mm Hg.

Q: What about the mean blood pressure (3.0 mg/kg p.o., 18 hours after substance administration) of the same compound?
A: Its mean blood pressure is 129.6 mm Hg.

Q: And the mean blood pressure (3.0 mg/kg p.o., 19 hours after substance administration)?
A: Its mean blood pressure is 135.6 mm Hg.

Q: What about the mean blood pressure (3.0 mg/kg p.o., 20 hours after substance administration) of the same compound?
A: The mean blood pressure was 135.2 mm Hg.

Q: And the mean blood pressure (3.0 mg/kg p.o., 21 hours after substance administration)?
A: Its mean blood pressure is 129.3 mm Hg.

Q: And the mean blood pressure (3.0 mg/kg p.o., 22 hours after substance administration)?
A: The mean blood pressure was 128.3 mm Hg.

Q: And the mean blood pressure (3.0 mg/kg p.o., 23 hours after substance administration)?
A: The mean blood pressure was 130.2 mm Hg.

Q: What about the mean blood pressure (3.0 mg/kg p.o., 24 hours after substance administration) of the same compound?
A: The mean blood pressure was 130.8 mm Hg.

Q: With `COC(=O)N(C)c1c(N)nc(-c2nn(Cc3ccccc3F)c3ncc(F)cc23)nc1N` [Example 2] as the compound, how does the mean blood pressure [1] read?
A: The mean blood pressure was 161.3 mm Hg.

Q: And the mean blood pressure [2]?
A: Its mean blood pressure is 145.7 mm Hg.

Q: And the mean blood pressure [3]?
A: Its mean blood pressure is 130.5 mm Hg.

Q: What about the mean blood pressure [4] of the same compound?
A: Its mean blood pressure is 121.5 mm Hg.

Q: And the mean blood pressure [5]?
A: Its mean blood pressure is 123.1 mm Hg.

Q: And the mean blood pressure [6]?
A: The mean blood pressure was 121.6 mm Hg.

Q: And the mean blood pressure [7]?
A: Its mean blood pressure is 123.8 mm Hg.

Q: What about the mean blood pressure [8] of the same compound?
A: Its mean blood pressure is 124.4 mm Hg.

Q: And the mean blood pressure [9]?
A: The mean blood pressure was 128.7 mm Hg.

Q: And the mean blood pressure [10]?
A: The mean blood pressure was 133.7 mm Hg.

Q: And the mean blood pressure [11]?
A: The mean blood pressure was 139.2 mm Hg.

Q: What about the mean blood pressure [12] of the same compound?
A: Its mean blood pressure is 137.9 mm Hg.

Q: What about the mean blood pressure [13] of the same compound?
A: The mean blood pressure was 143.0 mm Hg.

Q: And the mean blood pressure [14]?
A: Its mean blood pressure is 146.0 mm Hg.

Q: What about the mean blood pressure [15] of the same compound?
A: The mean blood pressure was 149.2 mm Hg.

Q: What about the mean blood pressure [16] of the same compound?
A: The mean blood pressure was 152.3 mm Hg.

Q: And the mean blood pressure [17]?
A: Its mean blood pressure is 155.5 mm Hg.

Q: And the mean blood pressure [18]?
A: Its mean blood pressure is 156.3 mm Hg.

Q: And the mean blood pressure [19]?
A: The mean blood pressure was 157.3 mm Hg.

Q: What about the mean blood pressure [20] of the same compound?
A: Its mean blood pressure is 156.9 mm Hg.

Q: And the mean blood pressure [21]?
A: Its mean blood pressure is 156.3 mm Hg.

Q: What about the mean blood pressure [22] of the same compound?
A: The mean blood pressure was 149.3 mm Hg.

Q: What about the mean blood pressure [23] of the same compound?
A: Its mean blood pressure is 147.1 mm Hg.

Q: What about the mean blood pressure [24] of the same compound?
A: Its mean blood pressure is 153.1 mm Hg.

Q: And the mean blood pressure [25]?
A: Its mean blood pressure is 152.3 mm Hg.
